Measurements taken from US12679878B2, “CRF2 receptor agonists and their use in therapy” (SANOFI, priority 2020, dated 2026).
Like-named read-outs stand apart in the source and are kept apart here. Starred links: 1 amine or outer side, 2 acyl side, 3 side chain; linkers in the order of their positions; H or OH if unused. Non-standard residues stand in square brackets, D forms with d. Residues, ends and D or L forms follow the SMILES beside them. Groups on a side chain read outwards from the residue. *: point of attachment. C18 diacid = O=C(O)CCCCCCCCCCCCCCCCC(=O)*; γGlu = O=C(O)[C@H](CCC(=O)[*:2])N[*:1]; AEEA = NCCOCCOCC(=O)O; Aib = CC(C)(N)C(=O)O

Experiments:
human CRF2α receptor = target: T1, human CRF2α receptor (Homo sapiens, UniProt Q13324); experiment: cAMP agonism at human CRF2 α receptor in TeloHEAC cells (Example 7); type: cell-based; details: cAMP HTRF, TeloHEAC cells stably expressing human CRF2 α
T1 construct: expressed in transfected cells; host or cells: TeloHEAC
T1 sequence (Q13324 1-411): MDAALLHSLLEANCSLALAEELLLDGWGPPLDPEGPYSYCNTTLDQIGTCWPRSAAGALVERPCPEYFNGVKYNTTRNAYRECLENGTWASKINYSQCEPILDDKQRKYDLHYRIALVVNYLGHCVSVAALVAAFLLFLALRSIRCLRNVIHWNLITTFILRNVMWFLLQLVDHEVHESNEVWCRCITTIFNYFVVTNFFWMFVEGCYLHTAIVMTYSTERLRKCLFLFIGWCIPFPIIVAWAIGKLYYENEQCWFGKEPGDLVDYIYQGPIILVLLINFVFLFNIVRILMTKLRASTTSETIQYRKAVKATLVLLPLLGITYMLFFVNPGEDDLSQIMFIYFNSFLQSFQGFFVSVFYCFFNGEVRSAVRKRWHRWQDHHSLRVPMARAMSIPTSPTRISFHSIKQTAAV
How it was run: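 Thawed frozen stably transfected cells in HBSS/20 mM HEPES (0% or 0.1% HSA) plus 2 mM IBMX were exposed to compound at 2000 cells/well for 30 min at room temperature. Intracellular cAMP was read by HTRF (665/620 nm ratio) after 1 h lysis; EC50 was derived with 1000 nM urocortin 2 set as 100%.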

CRF1R receptor = target: T2, CRF1R receptor (Homo sapiens, UniProt P34998); experiment: cAMP activity at anti-target CRF1R, CHO-K1 cell line clone 2 (Example 19.10); type: cell-based; details: CRF1R CHO-K1 clone 2; for EC50: 0% HSA, read-out: EC50 [nM] 0% HSA; for Emax: 100% = Sauvagine at 100 nM
T2 construct: host or cells: CHO-K1 clone 2
T2 sequence (P34998 24-415): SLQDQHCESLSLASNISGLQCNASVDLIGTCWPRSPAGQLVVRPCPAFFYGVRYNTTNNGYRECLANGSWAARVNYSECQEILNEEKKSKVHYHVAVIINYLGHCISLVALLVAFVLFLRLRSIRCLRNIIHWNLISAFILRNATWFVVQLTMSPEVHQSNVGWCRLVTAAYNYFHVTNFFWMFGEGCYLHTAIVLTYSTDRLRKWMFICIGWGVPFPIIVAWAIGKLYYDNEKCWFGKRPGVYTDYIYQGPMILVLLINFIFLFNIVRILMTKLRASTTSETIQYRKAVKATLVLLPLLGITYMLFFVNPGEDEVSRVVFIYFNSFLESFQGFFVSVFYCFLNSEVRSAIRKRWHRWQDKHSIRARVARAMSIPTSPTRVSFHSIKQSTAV
How it was run: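 A CRF1R-overexpressing CHO-K1 line (clone 2) was grown in F12/10% FBS/G418 and frozen in aliquots before use. The cAMP assay followed the preceding procedure, with 100% activation defined by Sauvagine at 100 nM.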

[1] = 0% HSA, read-out: EC50 [nM], 0% HSA
[2] = 0.1% HSA, read-out: EC50 [nM], 0.1% HSA

Row | Structure (SMILES) | EC50 (human CRF2α receptor; [1]) [nM] | EC50 (human CRF2α receptor; [2]) [nM] | EC50 (CRF1R receptor) [nM] | Emax (CRF1R receptor) [%]
1 | CC[C@H](C)[C@H](N)C(=O)N[C@H](C(=O)N[C@@H](CC(C)C)C(=O)N[C@@H](CO)C(=O)N[C@@H](CC(C)C)C(=O)N[C@@H](CC(=O)O)C(=O)N[C@@H](C(=O)N1CCC[C@H]1C(=O)N[C@H](C(=O)N[C@@H](CCCCN)C(=O)N[C@@H](CC(C)C)C(=O)N[C@@H](CCCCNC(=O)COCCOCCNC(=O)COCCOCCNC(=O)CC[C@H](NC(=O)CCCCCCCCCCCCCCCCC(=O)O)C(=O)O)C(=O)N[C@@H](CCC(N)=O)C(=O)N[C@H](C(=O)N[C@@H](CC(C)C)C(=O)N[C@@H](CC(C)C)C(=O)N[C@@H](CCC(=O)O)C(=O)N[C@@H](CCC(N)=O)C(=O)N[C@@H](C)C(=O)N[C@@H](CCCCN)C(=O)N[C@@H](CCC(N)=O)C(=O)N[C@@H](CCCCN)C(=O)NC(C)(C)C(=O)N[C@@H](CCC(N)=O)C(=O)N[C@@H](CCCNC(=N)N)C(=O)N[C@@H](C)C(=O)N[C@@H](CCC(N)=O)C(=O)N[C@@H](C)C(=O)N[C@@H](CCC(=O)O)C(=O)N[C@@H](CCCCN)C(=O)N[C@@H](CC(N)=O)C(=O)N[C@@H](CCCCN)C(=O)N[C@@H](CCCNC(=N)N)C(=O)N[C@H](C(=O)N[C@@H](CC(C)C)C(=O)N[C@@H](CCC(=O)O)C(=O)N[C@@H](CCCNC(=N)N)C(=O)N[C@H](C(N)=O)C(C)C)[C@@H](C)CC)[C@@H](C)CC)[C@@H](C)CC)C(C)C)C(C)C [compound 126] (H-IVLSLD[dV]PIKLK([AEEA-AEEA-γGlu-C18 diacid])QILLEQAKQK[Aib]QRAQAEKNKRILERV-NH2; N-terminus assumed) | 0.22 | 5.59 | > 100 | 36.5
2 | CC[C@H](C)[C@H](N)C(=O)N[C@H](C(=O)N[C@@H](CC(C)C)C(=O)N[C@@H](CO)C(=O)N[C@@H](CC(C)C)C(=O)N[C@@H](CC(=O)O)C(=O)N[C@@H](C(=O)N1CCC[C@H]1C(=O)N[C@H](C(=O)N[C@@H](CCCCN)C(=O)N[C@@H](CC(C)C)C(=O)N[C@@H](CCCCNC(=O)COCCOCCNC(=O)COCCOCCNC(=O)CC[C@H](NC(=O)CCCCCCCCCCCCCCCCC(=O)O)C(=O)O)C(=O)N[C@@H](CCC(N)=O)C(=O)N[C@H](C(=O)N[C@@H](CC(C)C)C(=O)N[C@@H](CC(C)C)C(=O)N[C@@H](CCCCN)C(=O)N[C@@H](CCC(N)=O)C(=O)N[C@@H](CCC(=O)O)C(=O)N[C@@H](CCCNC(=N)N)C(=O)N[C@@H](CCC(N)=O)C(=O)N[C@@H](CCCCN)C(=O)NC(C)(C)C(=O)N[C@@H](CCC(N)=O)C(=O)N[C@@H](CCCNC(=N)N)C(=O)N[C@@H](CCC(=O)O)C(=O)N[C@@H](CCCCN)C(=O)N[C@@H](C)C(=O)N[C@@H](CCC(=O)O)C(=O)N[C@@H](CCCCN)C(=O)N[C@@H](CC(N)=O)C(=O)N[C@@H](CCCCN)C(=O)N[C@@H](CCC(N)=O)C(=O)N[C@H](C(=O)N[C@@H](CC(C)C)C(=O)N[C@@H](C)C(=O)N[C@@H](CCC(N)=O)C(=O)N[C@H](C(N)=O)C(C)C)[C@@H](C)CC)[C@@H](C)CC)[C@@H](C)CC)C(C)C)C(C)C [compound 134] (H-IVLSLD[dV]PIKLK([AEEA-AEEA-γGlu-C18 diacid])QILLKQERQK[Aib]QREKAEKNKQILAQV-NH2; N-terminus assumed) | 0.07 | 3.44 | > 100 | -8.6
3 | CC[C@H](C)[C@H](N)C(=O)N[C@H](C(=O)N[C@@H](CC(C)C)C(=O)N[C@@H](CO)C(=O)N[C@@H](CC(C)C)C(=O)N[C@@H](CC(=O)O)C(=O)N[C@H](C(=O)N1CCC[C@H]1C(=O)N[C@H](C(=O)NCC(=O)N[C@@H](CC(C)C)C(=O)N[C@@H](CCCCNC(=O)COCCOCCNC(=O)COCCOCCNC(=O)CC[C@H](NC(=O)CCCCCCCCCCCCCCCCC(=O)O)C(=O)O)C(=O)N[C@@H](CCC(N)=O)C(=O)N[C@H](C(=O)N[C@@H](CC(C)C)C(=O)N[C@@H](CC(C)C)C(=O)N[C@@H](CCCCN)C(=O)N[C@@H](CCC(N)=O)C(=O)N[C@@H](CCC(=O)O)C(=O)N[C@@H](CCCNC(=N)N)C(=O)N[C@@H](CCC(N)=O)C(=O)N[C@@H](CCCCN)C(=O)N[C@@H](CCCCN)C(=O)NC(C)(C)C(=O)N[C@@H](CCCNC(=N)N)C(=O)N[C@@H](CCC(=O)O)C(=O)N[C@@H](CCC(N)=O)C(=O)N[C@@H](C)C(=O)N[C@@H](CCC(=O)O)C(=O)N[C@H](C(=O)N[C@@H](CC(N)=O)C(=O)N[C@@H](CCCCN)C(=O)N[C@@H](CCCNC(=N)N)C(=O)N[C@H](C(=O)N[C@@H](CC(C)C)C(=O)N[C@@H](CCC(=O)O)C(=O)N[C@@H](CCCNC(=N)N)C(=O)N[C@H](C(N)=O)C(C)C)[C@@H](C)CC)[C@@H](C)O)[C@@H](C)CC)[C@@H](C)CC)C(C)C)C(C)C [compound 148] (H-IVLSLDVPIGLK([AEEA-AEEA-γGlu-C18 diacid])QILLKQERQKK[Aib]REQAETNKRILERV-NH2; N-terminus assumed) | 0.29 | 14.3 | > 100 | 2.6
4 | CC[C@H](C)[C@H](N)C(=O)N[C@H](C(=O)N[C@@H](CC(C)C)C(=O)N[C@@H](CO)C(=O)N[C@@H](CC(C)C)C(=O)N[C@@H](CC(=O)O)C(=O)N[C@@H](C(=O)N1CCC[C@H]1C(=O)N[C@H](C(=O)N[C@@H](CCCCN)C(=O)N[C@@H](CC(C)C)C(=O)N[C@@H](CCCCNC(=O)COCCOCCNC(=O)COCCOCCNC(=O)CC[C@H](NC(=O)CCCCCCCCCCCCCCCCC(=O)O)C(=O)O)C(=O)N[C@@H](CCC(N)=O)C(=O)N[C@H](C(=O)N[C@@H](CC(C)C)C(=O)N[C@@H](CC(C)C)C(=O)N[C@@H](CCCCN)C(=O)N[C@@H](CCC(N)=O)C(=O)N[C@@H](CCC(=O)O)C(=O)N[C@@H](CCCNC(=N)N)C(=O)N[C@@H](CCC(N)=O)C(=O)N[C@@H](CCCCN)C(=O)N[C@@H](CCCCN)C(=O)NC(C)(C)C(=O)N[C@@H](CCCNC(=N)N)C(=O)N[C@@H](CCC(=O)O)C(=O)N[C@@H](CCC(N)=O)C(=O)N[C@@H](C)C(=O)N[C@@H](CCC(=O)O)C(=O)N[C@H](C(=O)N[C@@H](CC(N)=O)C(=O)N[C@@H](CCCCN)C(=O)N[C@@H](CCCNC(=N)N)C(=O)N[C@H](C(=O)N[C@@H](CC(C)C)C(=O)N[C@@H](CCC(=O)O)C(=O)N[C@@H](CCCNC(=N)N)C(=O)N[C@H](C(N)=O)C(C)C)[C@@H](C)CC)[C@@H](C)O)[C@@H](C)CC)[C@@H](C)CC)C(C)C)C(C)C [compound 149] (H-IVLSLD[dV]PIKLK([AEEA-AEEA-γGlu-C18 diacid])QILLKQERQKK[Aib]REQAETNKRILERV-NH2; N-terminus assumed) | 0.06 | 2.54 | > 100 | 6.6
5 | CC[C@H](C)[C@H](N)C(=O)N[C@H](C(=O)N[C@@H](CC(C)C)C(=O)N[C@@H](CO)C(=O)N[C@@H](CC(C)C)C(=O)N[C@@H](CC(=O)O)C(=O)N[C@@H](C(=O)N1CCC[C@H]1C(=O)N[C@H](C(=O)NCC(=O)N[C@@H](CC(C)C)C(=O)N[C@@H](CCCCNC(=O)COCCOCCNC(=O)COCCOCCNC(=O)CC[C@H](NC(=O)CCCCCCCCCCCCCCCCC(=O)O)C(=O)O)C(=O)N[C@@H](CCC(N)=O)C(=O)N[C@H](C(=O)N[C@@H](CC(C)C)C(=O)N[C@@H](CC(C)C)C(=O)N[C@@H](CCCCN)C(=O)N[C@@H](CCC(N)=O)C(=O)N[C@@H](CCC(=O)O)C(=O)N[C@@H](CCCNC(=N)N)C(=O)N[C@@H](CCC(N)=O)C(=O)N[C@@H](CCCCN)C(=O)N[C@@H](CCCCN)C(=O)NC(C)(C)C(=O)N[C@@H](CCCNC(=N)N)C(=O)N[C@@H](CCC(N)=O)C(=O)N[C@@H](CCC(N)=O)C(=O)N[C@@H](C)C(=O)N[C@@H](CCC(=O)O)C(=O)N[C@H](C(=O)N[C@@H](CC(N)=O)C(=O)N[C@@H](CCCCN)C(=O)N[C@@H](CCCNC(=N)N)C(=O)N[C@H](C(=O)N[C@@H](CC(C)C)C(=O)N[C@@H](CCC(=O)O)C(=O)N[C@@H](CCCNC(=N)N)C(=O)N[C@H](C(N)=O)C(C)C)[C@@H](C)CC)[C@@H](C)O)[C@@H](C)CC)[C@@H](C)CC)C(C)C)C(C)C [compound 150] (H-IVLSLD[dV]PIGLK([AEEA-AEEA-γGlu-C18 diacid])QILLKQERQKK[Aib]RQQAETNKRILERV-NH2; N-terminus assumed) | 0.07 | 3.99 | > 100 | 7.2
